Where two headings read alike, the source gives them in different places.
Biological target: T1, hCB2R(D80N) (Homo sapiens, UniProt P34972, D80N)
T1 construct: expressed in transfected cells; host or cells: neurons of the right striatum of male Wistar rats, transduced in vivo with the AAV2/7-CaMKII0.4-intron-hCB2R(D80N) vector
Assay type: in vivo
Conditions: for reduction of the normalized AUC between 20 and 60 min p.i.: GW405833 i.v. 20 min after radioligand
Text: In a proof-of-concept study, the specific binding to the human CB2R and the ability to cross the blood–brain barrier of [^18F]RM365 in vivo was investigated by PET imaging experiments using an established rat model with a local overexpression of hCB2R(D80N) in the right striatum (target region).[32],[66] Exemplary images of the averaged time frames of the PET study, as well as the TACs of the target region and both reference regions on the contralateral site and the cerebellum, are shown in Figure 10. […] However, the TAC peak value was four to five times lower in the reference regions, which was reflected by the seven to eight times lower accumulated activity over time expressed as the area under the curve (AUC) of [^18F]RM365 (Table 3). The high signal-to-background ratio is reflected by a SUVr of 15 ± 5 and 20 ± 5 for the target region-to-contralateral and -cerebellum ratios, respectively, at 60 min p.i. […] Additionally, we investigated the reversibility of the binding toward the human CB2R receptor in vivo in displacement studies by administering the CB2R-specific agonist GW405833 into the tail vein 20 min after the radioligand injection into the hCB2R(D80N)-overexpressing rat model (Figure 10B, Table 3). […] The signal in the contralateral side (p-value = 0.1621, two-way ANOVA) and in the cerebellum (p-value = 0.6177, two-way ANOVA) was not affected by the treatment over time with GW405833 (Figure S6), underlining the eligibility of these reference regions.
In vivo biodistribution studies of [^18F]RM365 were performed in female CD-1 mice (n = 4, 31 ± 3 g) and female Wistar rats (n = 4, 150 ± 11 g). For the uptake studies into the brain, male Wistar rats carrying the stereotactically injected AAV2/7-CaMKII0.4-intron-hCB2R(D80N) (right striatum) and AAV2/7-CaMKII0.4-intron-3flag-eGFP (control/contralateral, left striatum) were used (n = 6; bodyweights were 260 ± 11 g). Data were assessed by dynamic small animal PET (Nanoscan, Mediso, Budapest, Hungary) in 60 min recordings, followed by T1-weighted (GRE, TR/TE = 15.0/2.4 ms, 252/252, FA = 25°) MR imaging with whole-body coils for anatomical correlation and attenuation correction.
The PET scans were performed 3−4 months after the stereotactic injections. Animals were initially anesthetized with 5% isoflurane and placed on a thermostatically heated animal bed, where anesthesia was maintained with 2% isoflurane in 60% oxygen/38% room air. […] Nonparametric (semiquantitative) analysis of achieved time–activity curves (TACs) was performed with Microsoft Excel to determine the time to peak, the TAC peak value, and the area under the curve (AUC) [drawing 1] where c (radioactivity) is expressed as the standardized uptake value normalized to the bodyweight in g (SUV). […]

[1] = male, Wistar, rat, in vivo, 60 min

T1 sequence (P34972 whole entry D80N): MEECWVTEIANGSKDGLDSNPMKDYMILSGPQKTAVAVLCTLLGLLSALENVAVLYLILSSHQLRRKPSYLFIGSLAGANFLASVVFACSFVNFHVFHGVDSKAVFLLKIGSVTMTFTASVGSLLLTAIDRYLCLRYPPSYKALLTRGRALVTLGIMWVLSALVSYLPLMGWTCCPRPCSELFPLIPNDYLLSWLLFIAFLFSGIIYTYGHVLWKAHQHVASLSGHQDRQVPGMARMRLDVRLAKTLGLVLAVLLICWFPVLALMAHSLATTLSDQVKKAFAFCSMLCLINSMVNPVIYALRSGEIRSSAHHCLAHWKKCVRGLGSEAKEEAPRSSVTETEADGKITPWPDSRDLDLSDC

## CC1(C)Cc2ccc(C#N)cc2[C@@H]1NC(=O)c1cc2cc([18F])ccc2[nH]1 [[^18F]RM365]
Cerebellum as reference region
  reduction of the normalized AUC between 20 and 60 min p.i.: 70%
Contralateral site as reference region
  reduction of the normalized AUC between 20 and 60 min p.i.: 64%
[1]
  SUVr target region-to-cerebellum: 20 ± 5
  SUVr target region-to-contralateral: 15 ± 5
